Structures can show the parent of a compound that is named as a salt.
Columns and labels:
CB1-receptor [1] = biological target: CB1-receptor (UniProt P20272); assay: In-vitro determination of affinity (binding) to CB1-receptors, radioligand [3H]-CP55940; design: IC50; Ki; species or system human or rat; conditions: Pharmacological Methods Part I
Method: (§1) I. In-Vitro Determination of Affinity to CB1/CB2-Receptors
(§2) The in-vitro determination of the affinity of the inventive substituted pyrazoline compounds to CB1/CB2-Rezeptors is carried out as described in the publication of Ruth A. Ross, Heather C. Brockie et al., “Agonist-inverse agonist characterisation at CB1 and CB2 cannabinoid receptors of L-759633, L759656 and AM630”, British Journal of Pharmacology, 126, 665-672, (1999), whereby the transfected human CB1 and CB2 receptors of Receptor Biology, Inc. are used. The radioligand used for both receptors is [^3H]-CP55940. The respective parts of the description is hereby incorporated by reference and forms part of the present disclosure.
(§3) Rat Cerebellum CB1 Binding
(§4) Binding affinity to CB1 receptor was evaluated according to a modification of the method described by Govaerts et al., Eur J Pharmac Sci 23, 233-243 (2004). The respective parts of the description is hereby incorporated by reference and forms part of the present disclosure.
(§5) Briefly, cerebellum from male wistar rats (250-300 g) were carefully dissected on ice and homogenates were prepared with Potter-Helveheim in a cold 50 mM Tris-HCl solution containing 5 mM MgCl2, 1 mM EDTA and 0.25 M sucrose, pH 7.4. The suspension was centrifuged at 1,000×g for 5 minutes. The supernatants were collected and centrifuged 50,000×g for 15 minutes. The resulting pellets were then resuspended in Tris-HCl buffer without sucrose, homogenised and incubated for 15 min at 37° C. in an orbital shaker bath and centrifuged again at 50,000×g for 15 min. Pellets were weighted, resuspended in Tris-HCl buffer without sucrose, homogenised with Ultraturrax at 13,500 rpm for 3×5 seconds and alicuoted in 0.9 ml volumes in Eppendorf tubes. Alicuotes were centrifuged at 20,800×g for 5 minutes, supernatants discarded and pellets were frozen at −80° C. until use. Total protein concentration was determined using the Bio-Rad Lowry method based kit. Competitive binding experiments were performed in presence of 1 nM [^3H]-CP 55,940 in siliconised glass tubes containing 100 μg protein/tube resuspended in 1 ml final volume of 50 mM Tris-HCl, 5 mM MgCl2, 1 mM EDTA, 0.5% (w/v) bovine serum albumin, pH 7.4. Compounds were present at various concentrations and the non specific binding was determined in the presence of 10 μM HU-210. After 1 hour incubation at 30° C., the suspension was rapidly filtered through 0.5% PEI pre-treated GF/B fiber filters on a 96-well harvester and washed 3 times with 3 ml ice-cold binding buffer without bovine serum albumin. Radioactivity on filters was measured with Wallac Winspectral 1414 counter by liquid scintillation in 6 ml Ecoscint H (National Diagnostics, U.K.). Assays were made in triplicates.
(§6) Binding data were analysed by non-linear regression with the software GraphPad Prism Version 3.03.
(§7) The binding of the pyrazoline compounds of general formulae I, Ia and Ib to CB1-receptors was determined according to the method described in the section Pharmacological Methods, Part I.

CB1-receptor [2] = biological target: CB1-receptor (UniProt P20272); assay: as above; design: % inh; 10^−7 M; compound at 10^−7 M; species or system human or rat; conditions: compound at 10^−7 M
Method: as §1, §2, §3, §4, §5, §6, §7

| Compound | IC50 (CB1-receptor [1]) [nM] | Ki (CB1-receptor [1]) [nM] | % inh. 10^−7 M (CB1-receptor [2]) [%] |
| --- | --- | --- | --- |
| Cc1cc(C)c(S(=O)(=O)NCC2=NN(c3ccc(Cl)cc3Cl)C(c3ccc(Cl)cc3)C2)c(C)c1 (stereo not drawn) [Example 40, N-[5-(4-Chloro-phenyl)-1-(2,4-dichloro-phenyl)-4,5-dihydro-1H-pyrazol-3-ylmethyl]-2,4,6-trimethyl-benzenesulfonamide] | 97 | 43.9 | 51.9 |
| O=S(=O)(NCC1=NN(c2ccc(Cl)cc2Cl)C(c2ccc(Cl)cc2)C1)c1cccc(Cl)c1 (stereo not drawn) [Example 1, 3-Chloro-N-[5-(4-chloro-phenyl)-1-(2,4-dichloro-phenyl)-4,5-dihydro-1H-pyrazol-3-ylmethyl]-benzenesulfonamide] | 388 | – | 27.1 |
| CCc1ccc(S(=O)(=O)NCC2=NN(c3ccc(Cl)cc3Cl)C(c3ccc(Cl)cc3)C2)cc1 (stereo not drawn) [Example 43, N-[5-(4-Chloro-phenyl)-1-(2,4-dichloro-phenyl)-4,5-dihydro-1H-pyrazol-3-ylmethyl]-4-ethyl-benzenesulfonamide] | – | – | 26.7 |
| O=S(=O)(NCC1=NN(c2ccc(Cl)cc2Cl)C(c2ccc(Cl)cc2)C1)c1ccc(OC(F)(F)F)cc1 (stereo not drawn) [Example 16, N-[5-(4-Chloro-phenyl)-1-(2,4-dichloro-phenyl)-4,5-dihydro-1H-pyrazol-3-ylmethyl]-4-trifluoromethoxy-benzenesulfonamide] | – | – | 88.0 |
| O=S(=O)(CC1CCCCC1)NCC1=NN(c2ccc(Cl)cc2Cl)C(c2ccc(Cl)cc2)C1 (stereo not drawn) [Example 31, N-[5-(4-Chloro-phenyl)-1-(2,4-dichloro-phenyl)-4,5-dihydro-1H-pyrazol-3-ylmethyl]-C-cyclohexyl-methanesulfonamide] | – | – | 15.9 |
| CCCCS(=O)(=O)NCC1=NN(c2ccc(Cl)cc2Cl)C(c2ccc(Cl)cc2)C1 (stereo not drawn) [Example 20, Butane-1-sulfonic acid [5-(4-chloro-phenyl)-1-(2,4-dichloro-phenyl)-4,5-dihydro-1H-pyrazol-3-ylmethyl]-amide] | – | – | 27.2 |
| O=S(=O)(NCC1=NN(c2ccc(Cl)cc2Cl)C(c2ccc(Cl)cc2)C1)c1csc2ccccc12 (stereo not drawn) [Example 37, Benzo[b]thiophene-3-sulfonic acid [5-(4-chloro-phenyl)-1-(2,4-dichloro-phenyl)-4,5-dihydro-1H-pyrazol-3-ylmethyl]-amide] | – | – | 27.2 |
| COc1ccc(C2CC(CNS(=O)(=O)c3cccc(Cl)c3)=NN2c2ccc(Cl)cc2Cl)cc1 (stereo not drawn) [Example 225, 3-Chloro-N-[1-(2,4-dichloro-phenyl)-5-(4-methoxy-phenyl)-4,5-dihydro-1H-pyrazol-3-ylmethyl]-benzenesulfonamide] | 90.1 | 39.7 | – |
| COc1cc(C)ccc1S(=O)(=O)NCC1=NN(c2ccc(Cl)cc2Cl)C(c2ccc(Cl)cc2)C1 (stereo not drawn) [Example 36, N-[5-(4-Chloro-phenyl)-1-(2,4-dichloro-phenyl)-4,5-dihydro-1H-pyrazol-3-ylmethyl]-2-methoxy-4-methyl-benzenesulfonamide] | – | – | 26.5 |
| O=S(=O)(NCC1=NN(c2ccc(Cl)cc2Cl)C(c2ccc(Cl)cc2)C1)c1cc(Cl)ccc1Cl (stereo not drawn) [Example 139, 2,5-Dichloro-N-[5-(4-chloro-phenyl)-1-(2,4-dichloro-phenyl)-4,5-dihydro-1H-pyrazol-3-ylmethyl]-benzenesulfonamide] | 16.5 | 7 | – |
| CCOc1ccc(C2CC(CNS(=O)(=O)c3cc(F)ccc3F)=NN2c2ccc(Cl)cc2Cl)cc1 (stereo not drawn) [Example 99, N-[1-(2,4-Dichloro-phenyl)-5-(4-ethoxy-phenyl)-4,5-dihydro-1H-pyrazol-3-ylmethyl]-2,5-difluoro-benzenesulfonamide] | 42.6 | 17.9 | – |
| Cc1ccc(F)cc1S(=O)(=O)NCC1=NN(c2ccc(Cl)cc2Cl)[C@@H](c2ccc(Cl)cc2)[C@H]1C (racemic) [Example 73, cis-(4RS,5RS)-N-[5-(4-Chloro-phenyl)-1-(2,4-dichloro-phenyl)-4-methyl-4,5-dihydro-1H-pyrazol-3-ylmethyl]-5-fluoro-2-methyl-benzenesulfonamide] | 11.8 | 5.3 | – |
| COc1ccc(C2CC(CNS(=O)(=O)c3cc(Cl)ccc3F)=NN2c2ccc(Cl)cc2Cl)cc1 (stereo not drawn) [Example 94, 5-Chloro-N-[1-(2,4-dichloro-phenyl)-5-(4-methoxy-phenyl)-4,5-dihydro-1-pyrazol-3-ylmethyl]-2-fluoro-benzenesulfonamide] | 74 | 33 | – |
| CCOc1ccc(C2CC(CNS(=O)(=O)c3cccc(Cl)c3F)=NN2c2ccc(Cl)cc2Cl)cc1 (stereo not drawn) [Example 250, 3-Chloro-N-[1-(2,4-dichloro-phenyl)-5-(4-ethoxy-phenyl)-4,5-dihydro-1H-pyrazol-3-ylmethyl]-2-fluoro-benzenesulfonamide] | 39.7 | 16.6 | – |
| CCOc1ccc(C2CC(CNS(=O)(=O)c3c(C)cc(C)cc3C)=NN2c2ccc(Cl)cc2Cl)cc1 (stereo not drawn) [Example 272, N-[1-(2,4-Dichloro-phenyl)-5-(4-ethoxy-phenyl)-4,5-dihydro-1H-pyrazol-3-ylmethyl]-2,4,6-trimethyl-benzenesulfonamide] | 13.4 | 5.7 | – |
| O=S(=O)(NCC1=NN(c2ccc(Cl)cc2Cl)C(c2ccc(Cl)cc2)C1)c1cccnc1 (stereo not drawn) [Example 53, Pyridine-3-sulfonic acid [5-(4-chloro-phenyl)-1-(2,4-dichloro-phenyl)-4,5-dihydro-1H-pyrazol-3-ylmethyl]-amide hydrochloride] | 88.2 | 43.2 | – |
| CC(=O)Nc1ccc(S(=O)(=O)NCC2=NN(c3ccc(Cl)cc3Cl)C(c3ccc(Cl)cc3)C2)cc1Cl (stereo not drawn) [Example 41, N-(2-Chloro-4-{[5-(4-chloro-phenyl)-1-(2,4-dichloro-phenyl)-4,5-dihydro-1H-pyrazol-3-ylmethyl]-sulfamoyl}-phenyl)-acetamide] | – | – | 8.2 |
| CCOc1ccc(C2CC(CNS(=O)(=O)c3cccc(Cl)c3Cl)=NN2c2ccc(Cl)cc2Cl)cc1 (stereo not drawn) [Example 248, 2,3-Dichloro-N-[1-(2,4-dichloro-phenyl)-5-(4-ethoxy-phenyl)-4,5-dihydro-1H-pyrazol-3-ylmethyl]-benzenesulfonamide] | 17.9 | 7.6 | – |
| O=S(=O)(NCC1=NN(c2ccc(Cl)cc2Cl)[C@@H](c2ccc(Cl)cc2)C1)c1cc(Cl)ccc1F [Example 106, (R)-5-Chloro-N-[5-(4-chloro-phenyl)-1-(2,4-dichloro-phenyl)-4,5-dihydro-1H-pyrazol-3-ylmethyl]-2-fluoro-benzenesulfonamide] | 28.5 | 11.9 | – |
| O=S(=O)(NCC1=NN(c2ccc(Cl)cc2Cl)C(c2ccc(Cl)cc2)C1)c1ccccc1Br (stereo not drawn) [Example 136, 2-Bromo-N-[5-(4-chloro-phenyl)-1-(2,4-dichloro-phenyl)-4,5-dihydro-1H-pyrazol-3-ylmethyl]-benzenesulfonamide] | 40 | 16.9 | – |
| COc1ccc(C2CC(CNS(=O)(=O)c3cc(C)ccc3C)=NN2c2ccc(Cl)cc2Cl)cc1 (stereo not drawn) [Example 97, N-[1-(2,4-Dichloro-phenyl)-5-(4-methoxy-phenyl)-4,5-dihydro-1H-pyrazol-3-ylmethyl]-2,5-dimethyl-benzenesulfonamide] | 43.9 | 18.4 | – |
| COC(=O)CCc1ccc(S(=O)(=O)NCC2=NN(c3ccc(Cl)cc3Cl)C(c3ccc(Cl)cc3)C2)cc1 (stereo not drawn) [Example 35, 3-(4-{[5-(4-Chloro-phenyl)-1-(2,4-dichloro-phenyl)-4,5-dihydro-1H-pyrazol-3-ylmethyl]-sulfamoyl}-phenyl)-propionic acid methyl ester] | – | – | 8.5 |
| O=[N+]([O-])c1cccc(S(=O)(=O)NCC2=NN(c3ccc(Cl)cc3Cl)C(c3ccc(Cl)cc3)C2)c1 (stereo not drawn) [Example 144, N-[5-(4-Chloro-phenyl)-1-(2,4-dichloro-phenyl)-4,5-dihydro-1H-pyrazol-3-ylmethyl]-3-nitro-benzenesulfonamide] | 55 | 23.2 | – |
